Data on 3 compounds can be found in ChEMBL document CHEMBL5724806, “Unraveling interindividual differences and functional consequences of gut microbial metabolism of immunosuppressants” (2024).

Format in all cases: ADME
Series [1] is described as follows: The drug is tested on the gut metagenome community of P-03 with ENA study accession number: PRJEB31790 for biotransformation under anaerobic condition. The drug concentrations were measured over 7 timepoints collected between 0 and 12 hours of incubation by liquid-chromatography-coupled mass spectrometry (LC–MS). Set-up: dose 5 uM, timepoint 0, 0.75, 1.5, 3, 6, 9, 12 hours. The following applies: 5 µM.

Series [2] can be described thus: The drug is tested on Eubacterium hallii strain: DSM3353 for biotransformation under anaerobic condition. The drug concentrations were measured over 6 timepoints collected between 0 and 12 hours of incubation by liquid-chromatography-coupled mass spectrometry (LC–MS). Particulars: anaerobutyricum hallii, 5 µM. Set-up: dose 5 uM, timepoint 0, 1.5, 3, 6, 9, 12 hours.

Series [3] in a line: The drug is tested on the gut metagenome community of A-03 with ENA study accession number: PRJEB31790 for biotransformation under microaerobic condition. The drug concentrations were measured over 7 timepoints collected between 0 and 12 hours of incubation by liquid-chromatography-coupled mass spectrometry (LC–MS). Set-up: dose 5 uM, timepoint 0, 0.75, 1.5, 3, 6, 9, 12 hours. Particulars: 5 µM.

Series [4] is described as follows: The drug is tested on Lactobacillus ruminis strain: ATCC25644 for biotransformation under microaerobic condition. The drug concentrations were measured over 6 timepoints collected between 0 and 12 hours of incubation by liquid-chromatography-coupled mass spectrometry (LC–MS). Set-up: dose 5 uM, timepoint 0, 1.5, 3, 6, 9, 12 hours. Particulars: ligilactobacillus ruminis, 5 µM.

Series [5] is described as follows: The drug is tested on the gut metagenome community of A-08 with ENA study accession number: PRJEB31790 for biotransformation under anaerobic condition. The drug concentrations were measured over 7 timepoints collected between 0 and 12 hours of incubation by liquid-chromatography-coupled mass spectrometry (LC–MS). Particulars: 5 µM. Set-up: dose 5 uM, timepoint 0, 0.75, 1.5, 3, 6, 9, 12 hours.

Series [6] in a line: The drug is tested on Eubacterium eligens strain: DSM3376 for biotransformation under anaerobic condition. The drug concentrations were measured over 6 timepoints collected between 0 and 12 hours of incubation by liquid-chromatography-coupled mass spectrometry (LC–MS). Set-up: dose 5 uM, timepoint 0, 1.5, 3, 6, 9, 12 hours. The following applies: lachnospira eligens, 5 µM.
A short description of series [7]: The drug is tested on Eubacterium rectale strain: DSM17629 for biotransformation under anaerobic condition. The drug concentrations were measured over 6 timepoints collected between 0 and 12 hours of incubation by liquid-chromatography-coupled mass spectrometry (LC–MS). Set-up: dose 5 uM, timepoint 0, 1.5, 3, 6, 9, 12 hours. Particulars: agathobacter rectalis, 5 µM.

Series [8] can be described thus: The drug is tested on the gut metagenome community of T-05 with ENA study accession number: PRJEB31790 for biotransformation under microaerobic condition. The drug concentrations were measured over 7 timepoints collected between 0 and 12 hours of incubation by liquid-chromatography-coupled mass spectrometry (LC–MS). Set-up: dose 5 uM, timepoint 0, 0.75, 1.5, 3, 6, 9, 12 hours. The following applies: 5 µM.

Series [9] can be described thus: The drug is tested on Bacteroides fragilis strain: DSM2151 for biotransformation under anaerobic condition. The drug concentrations were measured over 6 timepoints collected between 0 and 12 hours of incubation by liquid-chromatography-coupled mass spectrometry (LC–MS). Set-up: dose 5 uM, timepoint 0, 1.5, 3, 6, 9, 12 hours. The following applies: 5 µM.
The nature of series [10]: The drug is tested on Enterococcus faecalis strain: ATCC29212 for biotransformation under microaerobic condition. The drug concentrations were measured over 6 timepoints collected between 0 and 12 hours of incubation by liquid-chromatography-coupled mass spectrometry (LC–MS). Set-up: dose 5 uM, timepoint 0, 1.5, 3, 6, 9, 12 hours. Particulars: 5 µM.
Series [11] is described as follows: The drug is tested on the gut metagenome community of A-08 with ENA study accession number: PRJEB31790 for biotransformation under microaerobic condition. The drug concentrations were measured over 7 timepoints collected between 0 and 12 hours of incubation by liquid-chromatography-coupled mass spectrometry (LC–MS). Particulars: 5 µM. Set-up: dose 5 uM, timepoint 0, 0.75, 1.5, 3, 6, 9, 12 hours.

Series [12] can be described thus: The drug is tested on Enterococcus faecalis strain: ATCC29212 for biotransformation under anaerobic condition. The drug concentrations were measured over 6 timepoints collected between 0 and 12 hours of incubation by liquid-chromatography-coupled mass spectrometry (LC–MS). Set-up: dose 5 uM, timepoint 0, 1.5, 3, 6, 9, 12 hours. Particulars: 5 µM.
Series [13] in a line: The drug is tested on Lactobacillus ruminis strain: ATCC25644 for biotransformation under anaerobic condition. The drug concentrations were measured over 6 timepoints collected between 0 and 12 hours of incubation by liquid-chromatography-coupled mass spectrometry (LC–MS). Set-up: dose 5 uM, timepoint 0, 1.5, 3, 6, 9, 12 hours. Particulars: ligilactobacillus ruminis, 5 µM.

Series [14] can be described thus: The drug is tested on Bacteroides ovatus strain: ATCC 8483 for biotransformation under anaerobic condition. The drug concentrations were measured over 6 timepoints collected between 0 and 12 hours of incubation by liquid-chromatography-coupled mass spectrometry (LC–MS). Set-up: dose 5 uM, timepoint 0, 1.5, 3, 6, 9, 12 hours. Particulars: 5 µM.
The nature of series [15]: The drug is tested on Alloscardovia omnicolens strain: DSM21503 for biotransformation under microaerobic condition. The drug concentrations were measured over 6 timepoints collected between 0 and 12 hours of incubation by liquid-chromatography-coupled mass spectrometry (LC–MS). Set-up: dose 5 uM, timepoint 0, 1.5, 3, 6, 9, 12 hours. Particulars: 5 µM.
Series [16] is described as follows: The drug is tested on Odoribacter splanchnicus strain: DSM20712 for biotransformation under anaerobic condition. The drug concentrations were measured over 6 timepoints collected between 0 and 12 hours of incubation by liquid-chromatography-coupled mass spectrometry (LC–MS). Set-up: dose 5 uM, timepoint 0, 1.5, 3, 6, 9, 12 hours. Particulars: 5 µM.
Series [17] is described as follows: The drug is tested on Bifidobacterium longum strain: DSM20088 for biotransformation under anaerobic condition. The drug concentrations were measured over 6 timepoints collected between 0 and 12 hours of incubation by liquid-chromatography-coupled mass spectrometry (LC–MS). Set-up: dose 5 uM, timepoint 0, 1.5, 3, 6, 9, 12 hours. The following applies: 5 µM.
A short description of series [18]: The drug is tested on the gut metagenome community of A-06 with ENA study accession number: PRJEB31790 for biotransformation under microaerobic condition. The drug concentrations were measured over 7 timepoints collected between 0 and 12 hours of incubation by liquid-chromatography-coupled mass spectrometry (LC–MS). Set-up: dose 5 uM, timepoint 0, 0.75, 1.5, 3, 6, 9, 12 hours. The following applies: 5 µM.

A short description of series [19]: The drug is tested on Alloscardovia omnicolens strain: DSM21503 for biotransformation under anaerobic condition. The drug concentrations were measured over 6 timepoints collected between 0 and 12 hours of incubation by liquid-chromatography-coupled mass spectrometry (LC–MS). Set-up: dose 5 uM, timepoint 0, 1.5, 3, 6, 9, 12 hours. Particulars: 5 µM.
A short description of series [20]: The drug is tested on Bacteroides vulgatus strain: DSM1447 for biotransformation under anaerobic condition. The drug concentrations were measured over 6 timepoints collected between 0 and 12 hours of incubation by liquid-chromatography-coupled mass spectrometry (LC–MS). Set-up: dose 5 uM, timepoint 0, 1.5, 3, 6, 9, 12 hours. The following applies: phocaeicola vulgatus, 5 µM.

The nature of series [21]: The drug is tested on the gut metagenome community of T-05 with ENA study accession number: PRJEB31790 for biotransformation under anaerobic condition. The drug concentrations were measured over 7 timepoints collected between 0 and 12 hours of incubation by liquid-chromatography-coupled mass spectrometry (LC–MS). Set-up: dose 5 uM, timepoint 0, 0.75, 1.5, 3, 6, 9, 12 hours. Particulars: 5 µM.

Series [22] is described as follows: The drug is tested on Bacteroides uniformis strain: DSM6597 for biotransformation under anaerobic condition. The drug concentrations were measured over 6 timepoints collected between 0 and 12 hours of incubation by liquid-chromatography-coupled mass spectrometry (LC–MS). The following applies: 5 µM. Set-up: dose 5 uM, timepoint 0, 1.5, 3, 6, 9, 12 hours.
The nature of series [23]: The drug is tested on the gut metagenome community of P-02 with ENA study accession number: PRJEB31790 for biotransformation under anaerobic condition. The drug concentrations were measured over 7 timepoints collected between 0 and 12 hours of incubation by liquid-chromatography-coupled mass spectrometry (LC–MS). Set-up: dose 5 uM, timepoint 0, 0.75, 1.5, 3, 6, 9, 12 hours. The following applies: 5 µM.

Series [24] in a line: The drug is tested on Coprococcus comes strain: ATCC27758 for biotransformation under anaerobic condition. The drug concentrations were measured over 6 timepoints collected between 0 and 12 hours of incubation by liquid-chromatography-coupled mass spectrometry (LC–MS). Set-up: dose 5 uM, timepoint 0, 1.5, 3, 6, 9, 12 hours. Particulars: 5 µM.

Consider `CO[C@H]1C[C@@H]2CC[C@@H](C)[C@@](O)(O2)C(=O)C(=O)N2CCCC[C@H]2C(=O)O[C@H]([C@H](C)C[C@@H]2CC[C@@H](OCCO)[C@H](OC)C2)CC(=O)[C@H](C)/C=C(\C)[C@@H](O)[C@@H](OC)C(=O)[C@H](C)C[C@H](C)/C=C/C=C/C=C/1C` [EVEROLIMUS], for which the “Bacterial Biotransformation” value is “Compound NOT metabolized” in [1]; “Compound metabolized” in series [2]; “Compound metabolized” in series [3]; “Compound NOT metabolized” in series [4]; “Compound metabolized” in series [5]; “Compound NOT metabolized” in [6]. For the same compound, the “Bacterial Biotransformation” value is “Compound NOT metabolized” in [7]; “Compound NOT metabolized” in series [8]; “Compound NOT metabolized” in [9]; “Compound NOT metabolized” in series [10]; “Compound metabolized” in series [11]; “Compound metabolized” in series [12]. The “Bacterial Biotransformation” value is reported as “Compound NOT metabolized” in series [13]; “Compound NOT metabolized” in series [14]; “Compound NOT metabolized” in [15]; “Compound NOT metabolized” in series [16]; “Compound NOT metabolized” in [17]; “Compound metabolized” in series [18]. The “Bacterial Biotransformation” value in series [19] is “Compound NOT metabolized”; in [20], “Compound NOT metabolized”; in series [21], “Compound NOT metabolized”; in [22], “Compound NOT metabolized”; in [23], “Compound NOT metabolized”; in series [24], “Compound metabolized”.
Turning to `NS(=O)(=O)c1cc(C(=O)O)c(NCc2ccco2)cc1Cl` [FUROSEMIDE], the “Bacterial Biotransformation” value in series [1], in series [2], in series [3], in [4], in series [5] and in series [6] was “Compound NOT metabolized” each time. For the same compound, the “Bacterial Biotransformation” value in series [7], in series [8], in [9], in series [10], in series [11] and in series [12] was “Compound NOT metabolized” each time. Also, the “Bacterial Biotransformation” value in series [13], in series [14], in series [15], in [16], in [17] and in series [18] was “Compound NOT metabolized” each time. Also, the “Bacterial Biotransformation” value in series [19], in series [20], in series [21], in series [22], in series [23] and in [24] was “Compound NOT metabolized” throughout.
Regarding `C[C@]12CCC(=O)C=C1CC[C@@H]1[C@@H]2[C@@H](O)C[C@@]2(C)[C@H]1CC[C@]2(O)C(=O)CO` [HYDROCORTISONE], the “Bacterial Biotransformation” value is recorded as “Compound metabolized” in [1]; “Compound NOT metabolized” in series [2]; “Compound metabolized” in series [3]; “Compound NOT metabolized” in [4]; “Compound metabolized” in series [5]; “Compound NOT metabolized” in [6]. The “Bacterial Biotransformation” value in series [7] is “Compound NOT metabolized”; in [8] it was “Compound metabolized”; in series [9], “Compound NOT metabolized”; in series [10] it was “Compound NOT metabolized”; in series [11], “Compound metabolized”; in [12], “Compound NOT metabolized”. The “Bacterial Biotransformation” value in series [13] is given as “Compound NOT metabolized”; in series [14], “Compound NOT metabolized”; in series [15] it was “Compound NOT metabolized”; in [16], “Compound NOT metabolized”; in series [17], “Compound NOT metabolized”; in series [18] it was “Compound metabolized”. Besides, the “Bacterial Biotransformation” value in series [19] is “Compound NOT metabolized”; in [20], “Compound NOT metabolized”; in series [21], “Compound metabolized”; in [22], “Compound NOT metabolized”; in series [23], “Compound NOT metabolized”; in [24], “Compound NOT metabolized”.
